Results reported in article PMC11329928, “Design, synthesis and structure-activity relationship (SAR) studies of an unusual class of non-cationic fatty amine-tripeptide conjugates as novel synthetic antimicrobial agents” (Frontiers in Pharmacology, 2024).
Counter-ions that a name gives are not always drawn.

What was measured:
[1] = test system: Streptococcus pneumoniae R6; test: Growth inhibition / lysis screening of planktonic cultures (OD550/600); assay type: cell-based; parameters: key: (+++) full inhibition; (++) partial inhibition; (+) growth retardation; -: (−) no effect; conditions: S. pneumoniae R6, 50 and 100 μM compound added at early logarithmic phase (T1), OD550/600 followed 10 h, 37°C
Protocol: (§1) Planktonic cultures of selected pathogens (S. pneumoniae R6, S. pyogenes ^T, Staphylococcus aureus ^T, Escherichia coli DH10B, and Pseudomonas aeruginosa PAO1 strains) on early logarithmic-phase (T1) were assayed for their sensitivity to a broad range of DICAM compounds, as indicated in Table 1. Their bacteriostatic or lytic effect was first tested by measuring the variation of the OD550/600 as a function of time (10 h) when (50/100 μM) DICAMs were added, compared to untreated controls. The screening results, summarized in Table 1, evidenced that a potent antimicrobial activity may exist even when the negative charge of the peptide was higher than in the prototype compounds.
(§2) Susceptibility to DICAMs was first tested by growth-inhibition assays at 50 and 100 μM of compound. Briefly, working solutions at 5 mM or 10 mM DICAM in pure DMSO were prepared from DICAM stocks (40 mM in pure DMSO) and diluted with fresh culture medium to 5× the desired final concentration. Aliquots (50 µL) of these solutions were added to 200 µL of bacterium cultures grown to early exponential phase (OD550/600 c. a. 0.15–0.2 in sterile 96-well plates (Cultek, Spain). Incubation continued for 10 h at 37°C and turbidity (OD550/600) values were measured every 20 min to monitor growth and lysis, using a VersaMax microplate reader (Molecular Devices; United Kingdom). Next, the activity dependence on DICAM’s dose was examined by measuring the turbidity of treated and untreated cultures as a function of time. Also, the decay of bacterial viability (CFU/mL) at selected times of treatment was assessed by colony counting on LB-agar or TSA plates after overnight incubation at 37°C. By default, 10 μL of 10-fold serially diluted samples were plated, which set the lower detection limit at 10^2 CFU/mL (10^1 CFU/mL when 100 μL of the undiluted sample was seeded).

Streptococcus pyogenes T = test: Growth inhibition screening of planktonic cultures (OD550/600); assay type: cell-based; parameters: key: (+++) full inhibition; (++) partial inhibition; (+) growth retardation; -: (−) no effect; conditions: S. pyogenes T, 50 and 100 μM compound added at T1, OD550/600 followed 10 h, 37°C
Protocol: as §1, §2

S. pneumoniae D39 = assay type: cell-based, Streptococcus pneumoniae; conditions: for SC (stationary concentration, Δlog = 0), S. pneumoniae D39 / EC50 / Δlogmax, S. pneumoniae D39: 1 h treatment, Hill fit; for SC (stationary concentration, Δlog = 0), S. pneumoniae D39: C + Y medium, added at T1, 10^7–10^8 CFU/mL, CFU vs untreated controls; for EC50 / Δlogmax, S. pneumoniae D39: C + Y; for EC50: read-out: K 1/2 (concentration yielding half-variation in Δlogmax), S. pneumoniae D39 (converted); for Δlogmax, S. pneumoniae D39: maximum variation in viability; for Reduction of the number of viable cells at saturating doses: S. pneumoniae D39, within 60 min; for Reduction of the number of viable cells at 3 × SC, S. pneumoniae: after 1-h incubation at 3 × SC values
Excerpt: First, the substitution of the fatty amino chain of 18 carbon atoms of the reference compound DICAM 2 by either an OMe group (methylated tripeptide DICAM 5) or an amine with 12 carbon atoms (DICAM 9) abolished the activity against all three pathogens. However, the activity remained intact when the chain of the fatty amine of prototypes DICAMs 1 and 4 was two carbon atoms shorter (DICAM 10 and DICAM 12, respectively), based on S. pneumoniae and S. pyogenes results. […] Third, Glu and Ala were tolerated as C-terminal residues of the lipotripeptides. […] In addition, deletion of the C-terminal Glu (DICAM 13) eradicated the activity against S. pneumoniae and S. aureus. However, a delay and small inhibition of S. pyogenes ^T growth was still observed. Fourth, Glu (DICAMs 19 and 20) and Orn (DICAMs 21 and 22) were tolerated as N-terminal residues, with the impact of these modifications being pathogen-dependent. […] SAR studies continued by measuring the dose dependence of DICAM’s activity at T1 with all the compounds found to be active against S. pyogenes or S. aureus in the initial screening, and all but one compound in the case of S. pneumoniae. The OD values of bacterial cultures were monitored after DICAM addition, and the decrease in the number of viable bacteria was measured relative to controls (Figures 4–6; Supplementary Figure S1). As antibacterial efficacy may decline with the bacterium dose in the inoculum ([Belley et al., 2009]; [Udekwu et al., 2009]; [Luca et al., 2013]), the assays were performed using the bacterial concentrations necessary for the fluorescence experiments in Section 2.3 (10^7–10^8 CFU/mL). At these high bacterial densities, MICs were determined as the DICAM concentration at which bacteria neither grow nor are killed (the stationary concentration (SC)), following [Udekwu et al., 2009]. By fitting the logarithmic plot of cell viability decrease vs. the DICAM dose to a Hill function (see Section 5.2.3.1) we were able to determine the maximum variation in viability (Δlogmax = ∆log f - ∆log 0, where ∆log f and ∆log 0 are the upper and lower limits of Δlog) in the assay conditions, the SC concentration (Δlog = 0), the dose required for half-variation in Δlogmax (K 1/2), and the cooperativity of the antimicrobial effect (N H).
as §2
As antibacterial efficacy may decline with the bacterium dose in the inoculum ([Belley et al., 2009]; [Udekwu et al., 2009]; [Luca et al., 2013]), activity assays were performed using the bacterial concentrations required for the fluorescence experiments in Section 2.3 (10^7–10^8 CFU/mL). At such bacterial densities, MICs were determined as the DICAM concentration at which bacteria neither grow nor are killed under assay conditions (the stationary concentration (SC)), as indicated in Section 2.2. […]

[2] = test system: human fetal lung fibroblasts IMR-90; assay type: cell-based; conditions: 48 h
Protocol: DICAM’s cytotoxicity was determined employing a modified MTT assay as described elsewhere ([Antúnez-Mojica et al., 2016]) using human lung carcinoma epithelial cells A549, human fetal lung fibroblasts IMR-90, and human HeLa cervix carcinoma cells treated with increasing concentrations of DICAMs (0.8–200 µM range). A549 cells were grown in RPMI 1640 (Gibco; Fisher Scientific, Spain) supplemented with 10% FCS, 2 mM glutamine, 100 IU/mL penicillin and 100 μg/mL streptomycin. IMR-90 and HeLa cells were cultured in DMEM (Gibco; Fisher Scientific, Spain) supplemented with 10% FCS, 2 mM L-glutamine, 1 mM pyruvate, […] penicillin, 100 μg/mL streptomycin and 40 μg/mL gentamycin. Cell viability was assessed after 48 h exposure to DICAMs. Vinblastine was used as a positive control. IC50 value is the concentration that gives 50% inhibition of cell growth and was determined using SigmaPlot (Systat) fitting to a Four Parameter Logistic curve.

[3] = S. pneumoniae D39, 50 μM (Supplementary Figure S1F), C+Y, 37°C

| Structure (SMILES) | Growth halt or lysis (50/100 μM), Spn [1] | Growth halt or lysis (50/100 μM), Spy T (Streptococcus pyogenes T) | SC (stationary concentration, Δlog = 0), S. pneumoniae D39 (S. pneumoniae D39; 37°C) | EC50 (S. pneumoniae D39; 37°C) | Time required to reduce the viability by 99.99% (S. pneumoniae D39; [3]) | Viability decrease in 1 h (S. pneumoniae D39; [3]) | Δlogmax, S. pneumoniae D39 (S. pneumoniae D39; 37°C) | IC50 [2] | Reduction of the number of viable cells at saturating doses (S. pneumoniae D39) | Reduction of the number of viable cells at 3 × SC, S. pneumoniae (S. pneumoniae D39) | Cell killing after 60 min of incubation (S. pneumoniae D39; [3]) | Time to nearly sterilize the culture (S. pneumoniae D39; S. pneumoniae D39, 50 μM, C+Y, 37°C, legend of Supplementary Figure S1F) |
| --- | --- | --- | --- | --- | --- | --- | --- | --- | --- | --- | --- | --- |
| CCCCCCCCCCCCCCCCCCNC(=O)[C@H](CCC(=O)O)NC(=O)[C@H]1CCCN1C(=O)[C@H](CC(N)=O)NC(=O)OCc1ccccc1 [DICAM 1, Cbz-Asn- Pro -Glu-NH-C18H37] | +++ | +++ | 2 ± 0.2 µM | 3.8 ± 0.2 µM | 2 to 2.5 h | ≈ 90% | 2.05 ± 0.03 logarithmic units | 39 ± 1 µM |  |  |  |  |
| CCCCCCCCCCCCCCCCCCNC(=O)[C@H](CCC(=O)O)NC(=O)[C@H]1CCCN1C(=O)[C@@H](N)CC(N)=O [DICAM 2, Asn- Pro -Glu-NH-C18H37 ·HCl] | +++ | +++ | 4.1 ± 0.6 µM | 10.7 ± 0.4 µM |  |  | 4.6 ± 0.1 logarithmic units | 46.7 ± 0.7 µM | ≥ 4.6 log-units | 99.2%–99.8 |  |  |
| CCCCCCCCCCCCCCCCCCNC(=O)[C@H](CCC(=O)O)NC(=O)[C@H]1CCCN1C(=O)[C@H](C)NC(=O)OCc1ccccc1 [DICAM 3, Cbz-Ala- Pro -Glu-NH-C18H37] | +++ | +++ | 6.5 ± 0.5 µM | 7.8 ± 0.4 µM | 2 to 2.5 h | ≈ 90% | 1.51 ± 0.04 logarithmic units | 75 ± 13 µM |  |  |  |  |
| CCCCCCCCCCCCCCCCCCNC(=O)[C@H](CCC(=O)O)NC(=O)[C@H]1CCCN1C(=O)[C@H](C)N [DICAM 4, Ala- Pro -Glu-NH-C18H37 ·HCl] | +++ | +++ | 4 ± 1.5 µM | 13 ± 2 µM |  |  | 6.0 ± 0.4 logarithmic units | 65 ± 3 µM | ≥ 4.6 log-units | 99.2%–99.8 | ≥ 99.999% | less than 1 h |
| CCCCCCCCCCCCCCCCNC(=O)[C@H](CCC(=O)O)NC(=O)[C@H]1CCCN1C(=O)[C@H](CC(N)=O)NC(=O)OCc1ccccc1 [DICAM 10, Cbz-Asn- Pro -Glu-NH-C16H33] | +++ | +++ | 3.4 ± 0.5 µM | 6.5 ± 0.3 µM | 2 to 2.5 h | ≈ 90% | 3.13 ± 0.06 logarithmic units | 45 ± 1 µM |  |  |  |  |
